PubChem BioAssay (NCI)
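Interpolation was linear, between the two tested concentrations surrounding the appropriate level; five concentrations were tested over 48 hours in 96-well plates. TGI: total growth inhibition.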

Tests used:
Assay in all cases: inhibition of tumour cell growth, NCI panel, 48 h
LOX IMVI melanoma = tested on: LOX IMVI melanoma
OVCAR-8 ovarian = tested on: OVCAR-8 ovarian
SK-MEL-28 melanoma = tested on: SK-MEL-28 melanoma
SW-620 colon = tested on: SW-620 colon
EKVX NSCLC = tested on: EKVX NSCLC
UACC-257 melanoma = tested on: UACC-257 melanoma
SK-OV-3 ovarian = tested on: SK-OV-3 ovarian
COLO 205 colon = tested on: COLO 205 colon
SNB-75 CNS = tested on: SNB-75 CNS
SF-539 CNS = tested on: SF-539 CNS
U251 CNS = tested on: U251 CNS
NCI-H522 lung = tested on: NCI-H522 lung
MOLT-4 leukemia = tested on: MOLT-4 leukemia
NCI-H23 lung = tested on: NCI-H23 lung
HT29 colon = tested on: HT29 colon
CAKI-1 renal = tested on: CAKI-1 renal
MALME-3M melanoma = tested on: MALME-3M melanoma
SNB-78 CNS = tested on: SNB-78 CNS
DLD-1 colon = tested on: DLD-1 colon
IGROV1 ovarian = tested on: IGROV1 ovarian
ACHN renal = tested on: ACHN renal
A498 renal = tested on: A498 renal
SNB-19 CNS = tested on: SNB-19 CNS
HOP-92 NSCLC = tested on: HOP-92 NSCLC
K-562 leukemia = tested on: K-562 leukemia
RXF 393 renal = tested on: RXF 393 renal
SK-MEL-2 melanoma = tested on: SK-MEL-2 melanoma
HCT-116 colon = tested on: HCT-116 colon
HCC-2998 colon = tested on: HCC-2998 colon
OVCAR-3 ovarian = tested on: OVCAR-3 ovarian
TK-10 renal = tested on: TK-10 renal
786-0 renal = tested on: 786-0 renal
NCI-H460 lung = tested on: NCI-H460 lung
M14 melanoma = tested on: M14 melanoma
OVCAR-4 ovarian = tested on: OVCAR-4 ovarian
DMS 273 small cell lung = tested on: DMS 273 small cell lung
XF 498 CNS = tested on: XF 498 CNS
SF-268 CNS = tested on: SF-268 CNS
OVCAR-5 ovarian = tested on: OVCAR-5 ovarian
RPMI-8226 leukemia = tested on: RPMI-8226 leukemia
M19-MEL melanoma = tested on: M19-MEL melanoma
SK-MEL-5 melanoma = tested on: SK-MEL-5 melanoma
SF-295 CNS = tested on: SF-295 CNS
LXFL 529 NSCLC = tested on: LXFL 529 NSCLC
HL-60(TB) leukemia = tested on: HL-60(TB) leukemia
CCRF-CEM leukemia = tested on: CCRF-CEM leukemia
UACC-62 melanoma = tested on: UACC-62 melanoma
A549 NSCLC = tested on: A549 NSCLC
UO-31 renal = tested on: UO-31 renal
RXF-631 renal = tested on: RXF-631 renal
KM12 colon = tested on: KM12 colon
HOP-62 NSCLC = tested on: HOP-62 NSCLC
SN12C renal = tested on: SN12C renal
HCT-15 colon = tested on: HCT-15 colon
SR leukemia = tested on: SR leukemia
NCI-H226 lung = tested on: NCI-H226 lung
DMS 114 small cell lung = tested on: DMS 114 small cell lung
KM20L2 colon = tested on: KM20L2 colon
HOP-18 NSCLC = tested on: HOP-18 NSCLC

Measured: TGI

Cc1cc(C)c(S(=O)(=O)ONC(=O)OC(C)(C)C)c(C)c1
> 100 µM: LOX IMVI melanoma | OVCAR-8 ovarian | SK-MEL-28 melanoma | SW-620 colon | EKVX NSCLC | UACC-257 melanoma | SK-OV-3 ovarian | COLO 205 colon | SNB-75 CNS | SF-539 CNS | U251 CNS | NCI-H522 lung | MOLT-4 leukemia | NCI-H23 lung | HT29 colon | CAKI-1 renal | MALME-3M melanoma | SNB-78 CNS | DLD-1 colon | IGROV1 ovarian | ACHN renal | A498 renal | SNB-19 CNS | HOP-92 NSCLC | K-562 leukemia | RXF 393 renal | SK-MEL-2 melanoma | HCT-116 colon | HCC-2998 colon | OVCAR-3 ovarian | TK-10 renal | 786-0 renal | NCI-H460 lung | M14 melanoma | OVCAR-4 ovarian | DMS 273 small cell lung | XF 498 CNS | SF-268 CNS | OVCAR-5 ovarian | RPMI-8226 leukemia | M19-MEL melanoma | SK-MEL-5 melanoma | SF-295 CNS | LXFL 529 NSCLC | HL-60(TB) leukemia | CCRF-CEM leukemia | UACC-62 melanoma | A549 NSCLC | UO-31 renal | RXF-631 renal | KM12 colon | HOP-62 NSCLC | SN12C renal | HCT-15 colon

CCOC(=O)c1ccc(-n2c(SCC)nc3sc(C)c(C)c3c2=O)cc1
> 100 µM: LOX IMVI melanoma | OVCAR-8 ovarian | SR leukemia | SK-MEL-28 melanoma | SW-620 colon | EKVX NSCLC | UACC-257 melanoma | SK-OV-3 ovarian | COLO 205 colon | SNB-75 CNS | NCI-H226 lung | DMS 114 small cell lung | SF-539 CNS | U251 CNS | NCI-H522 lung | NCI-H23 lung | HT29 colon | CAKI-1 renal | MALME-3M melanoma | SNB-78 CNS | DLD-1 colon | KM20L2 colon | IGROV1 ovarian | ACHN renal | A498 renal | SNB-19 CNS | HOP-92 NSCLC | K-562 leukemia | RXF 393 renal | HOP-18 NSCLC | SK-MEL-2 melanoma | HCT-116 colon | HCC-2998 colon | OVCAR-3 ovarian | TK-10 renal | 786-0 renal | NCI-H460 lung | M14 melanoma | OVCAR-4 ovarian | DMS 273 small cell lung | XF 498 CNS | SF-268 CNS | OVCAR-5 ovarian | RPMI-8226 leukemia | SK-MEL-5 melanoma | SF-295 CNS | HL-60(TB) leukemia | CCRF-CEM leukemia | UACC-62 melanoma | A549 NSCLC | UO-31 renal | KM12 colon | HOP-62 NSCLC | SN12C renal | HCT-15 colon
